Assay results reported in patent EP4596561A1, “PHOSPHORUS-CONTAINING COMPOUND, PHARMACEUTICAL COMPOSITION AND USE THEREOF” (Suzhou Genhouse Bio Co., Ltd., priority 2022, dated 2024).

Columns and labels:
[1] = Stability test in liver microsomes; assay type: in vitro ADME, CD-1 mouse; conditions: mouse liver microsomes, 0.5 mg/mL, 1.0 µM substrate
Description: Phase I metabolic stability of the test compounds in liver microsomes of CD-1 mice, Sprague-Dawley rats, and humans was assessed.
The animal and human liver microsomes used in the test system were purchased from Xenotech, Corning, or other qualified suppliers and stored in a freezer at a temperature below -60 °C prior to use. The information of the animal and human liver microsomes used was as follows:
The test samples and the reference compounds were separately incubated with animal and human liver microsomes at 37±1 °C for a period of incubation time of up to 60 min. The samples were taken out at the indicated time points, and the reaction was stopped with acetonitrile or another organic solvent containing an internal standard. After centrifugation, the resulting supernatants were assayed by the liquid chromatography-tandem mass spectrometry (LC-MS/MS) method.
Microsomes of each species were diluted into a 2× working solution with a 100 mM potassium phosphate buffer. […]
Incubation was performed in a 96-well plate. Eight incubation plates were prepared and designated T0, T5, T15, T30, T45, T60, Blank60, and NCF60, respectively. The first 6 plates corresponded to reaction time points of 0 min, 5 min, 15 min, 30 min, 45 min, and 60 min, respectively. No test sample or reference compound was added to the Blank60 plate, and samples were taken after 60 min of incubation. In the NCF60 plate, incubation was performed for 60 min using the potassium phosphate buffer instead of the NADPH regeneration system solution. Three replicates were made for samples in all conditions.
The microsomes and the test sample or reference compound were mixed, and then the incubation plates Blank60, T5, T15, T30, T45, and T60 except for T0 and NCF60 were placed in a 37 °C water bath for pre-incubation for about 10 min. In the incubation plate T0, a stop solution was first added, followed by the addition of the NADPH regeneration system working solution, and 98 µL of the potassium phosphate buffer was added to each sample well of the incubation plate NCF60 to initiate the reaction. After the pre-incubation of the incubation plates Blank60, T5, T15, T30, T45, and T60 was completed, 98 µL of the NADPH regeneration system working solution was added to each sample well to initiate the reaction. The reaction temperature was 37±1 °C, the final volume of the reaction was 200 µL, and the reaction system included 0.5 mg/mL microsomes, 1.0 µM substrate, 1 mM NADP, 6 mM ISO, and 1 unit/mL IDH.
At 5 min, 15 min, 30 min, 45 min, and 60 min, a cold stop solution containing an internal standard was added to the reaction plate to stop the reaction.
All the reaction plates after the reaction was stopped were shaken well and centrifuged at 3220× g at 4 °C for 20 min. After the supernatant was diluted at a certain ratio, LC-MS/MS analysis was performed.
Sample analysis was performed by the liquid chromatography-tandem mass spectrometry (LC-MS/MS) method without standard curves and quality control samples. Semi-quantitative determination was performed according to the ratio of the analyte peak area to the internal standard peak area. The retention times of the analyte and internal standard, the chromatogram acquisition, and chromatogram integration were processed using the Analyst software (Sciex, Framingham, Massachusetts, USA).
According to the well stir model, the hepatic intrinsic clearance and hepatic clearance can be converted through the following formula. CL(liver) = (CLint(liver)×Qh)/(CLint(liver)+Qh) [formula]

[2] = Pharmacokinetic test in rats; assay type: in vivo; conditions: rat, plasma, SD rats; for bioavailability: PO 10 mg/kg vs IV 2 mg/kg
Description: In this experimental example, the pharmacokinetic behavior of the test compounds after administration by intravenous injection (IV) and oral gavage (PO) in SD rats was tested. Preparation of formulations for administration referred to the low-dose pharmacokinetic test in mice.
On the day of administration, rats were weighed for actual body weight, and the administration volume was calculated. Each compound was tested in two groups with 3 rats in each group; one group was subjected to administration by single intravenous injection, and the other group was subjected to administration by single gavage. The whole blood samples were collected via the jugular vein at prescribed time points (0.25 h, 0.5 h, 1 h, 2 h, 4 h, 8 h, and 24 h after administration). After the blood sample collection, the samples were immediately transferred to labeled commercial sample tubes containing K2-EDTA (0.85-1.15 mg), followed by centrifugation (3200× g, 4 °C, 10 min) and plasma collection. The plasma was transferred to a pre-cooled centrifuge tube, frozen in dry ice, and then stored in an ultra-low temperature freezer at -60 °C or lower until the LC-MS/MS analysis was performed.
Plasma concentrations were determined by the LC-MS/MS method. Plasma drug concentration data for the compounds were processed using a non-compartmental model in the WinNonlin Version 6.3 (Pharsight, Mountain View, CA) pharmacokinetic software. The relevant pharmacokinetic parameters were calculated by a linear-log trapezoidal method.

NCI-H28 (NF2 wide-type) = assay: Inhibition of cell proliferation (CellTiter-Lumi); assay type: cell-based; conditions: Homo sapiens, 72 h + another 72 h treatment
[3] = tested on: NCI-H2452 (NF2 wide-type); assay: Inhibition of cell proliferation (CellTiter-Lumi); assay type: cell-based; conditions: Homo sapiens, 72 h + another 72 h treatment

Compound: CP(C)(=O)c1ccc2c(c1)c1ccccc1n2-c1ccc(C(F)(F)F)cc1 [Example 1]
- half-life at 1 µM [1]: > 2.42 h
- AUC(0-t) ([2]; IV 2 mg/kg): 113 µM·h
- MRT ([2]; IV 2 mg/kg): 46.3 h
- clearance ([2]; IV 2 mg/kg): 0.333 mL/min/kg
- half-life ([2]; IV 2 mg/kg): 32.4 h
- AUC(0-t) ([2]; PO 10 mg/kg): 605 µM·h
- MRT ([2]; PO 10 mg/kg): 69.9 h
- half-life ([2]; PO 10 mg/kg): 66.9 h
- bioavailability [2]: 107%

Compound: CP(C)(=O)c1ccc2c(c1)c1cccnc1n2-c1ccc(C(F)(F)F)cc1 [Example 5]
- IC50 (NCI-H28 (NF2 wide-type)): > 1.25 µM
- IC50 [3]: > 20 µM

Compound: CP(C)(=O)c1ccc2c(Oc3ccc(C(F)(F)F)cc3)cccc2c1 [Example 7]
- half-life at 1 µM [1]: > 2.42 h
- AUC(0-t) ([2]; IV 2 mg/kg): 44.5 µM·h
- MRT ([2]; IV 2 mg/kg): 20.5 h
- clearance ([2]; IV 2 mg/kg): 2 mL/min/kg
- half-life ([2]; IV 2 mg/kg): 15.7 h
- AUC(0-t) ([2]; PO 10 mg/kg): 308 µM·h
- MRT ([2]; PO 10 mg/kg): 28.5 h
- half-life ([2]; PO 10 mg/kg): 19.5 h
- bioavailability [2]: 142%

Compound: Cn1cnc(-c2cc(P(C)(C)=O)cnc2Nc2ccc(C(F)(F)F)cc2)c1 [Example 8]
- half-life at 1 µM [1]: > 2.42 h
- AUC(0-t) ([2]; IV 2 mg/kg): 8.89 µM·h
- MRT ([2]; IV 2 mg/kg): 7.8 h
- clearance ([2]; IV 2 mg/kg): 9 mL/min/kg
- half-life ([2]; IV 2 mg/kg): 6.2 h
- AUC(0-t) ([2]; PO 10 mg/kg): 59.3 µM·h
- MRT ([2]; PO 10 mg/kg): 20.6 h
- half-life ([2]; PO 10 mg/kg): 14.7 h
- bioavailability [2]: 133%

Compound: CP(C)(=O)c1ccc(Nc2ccc(C(F)(F)F)cc2)c(-c2ccccn2)c1 [Example 10]
- IC50 (NCI-H28 (NF2 wide-type)): > 1.25 µM
- IC50 [3]: > 5 µM
- half-life at 1 µM [1]: > 2.42 h
- AUC(0-t) ([2]; IV 2 mg/kg): 21.7 µM·h
- MRT ([2]; IV 2 mg/kg): 26.5 h
- clearance ([2]; IV 2 mg/kg): 3 mL/min/kg
- half-life ([2]; IV 2 mg/kg): 19 h
- AUC(0-t) ([2]; PO 10 mg/kg): 152 µM·h
- MRT ([2]; PO 10 mg/kg): 25.7 h
- half-life ([2]; PO 10 mg/kg): 17.8 h
- bioavailability [2]: 140%

Compound: CP(C)(=O)c1ccc(Nc2ccc(C(F)(F)F)cc2)c(-c2ncccn2)c1 [Example 12]
- IC50 (NCI-H28 (NF2 wide-type)): > 5 µM
- IC50 [3]: > 20 µM
- half-life at 1 µM [1]: > 2.42 h
- AUC(0-t) ([2]; IV 2 mg/kg): 34.9 µM·h
- MRT ([2]; IV 2 mg/kg): 76.3 h
- clearance ([2]; IV 2 mg/kg): 1.17 mL/min/kg
- half-life ([2]; IV 2 mg/kg): 54.2 h
- AUC(0-t) ([2]; PO 10 mg/kg): 114 µM·h
- MRT ([2]; PO 10 mg/kg): 24.9 h
- half-life ([2]; PO 10 mg/kg): 21.8 h
- bioavailability [2]: 65%

Compound: Cn1cnc(-c2cc(P(C)(C)=O)ccc2Nc2ccc(C(F)(F)F)cc2)c1 [Example 14]
- half-life at 1 µM [1]: > 2.42 h
- AUC(0-t) ([2]; IV 2 mg/kg): 16.9 µM·h
- MRT ([2]; IV 2 mg/kg): 10.2 h
- clearance ([2]; IV 2 mg/kg): 4.67 mL/min/kg
- half-life ([2]; IV 2 mg/kg): 8.1 h
- AUC(0-t) ([2]; PO 10 mg/kg): 83.2 µM·h
- MRT ([2]; PO 10 mg/kg): 15 h
- half-life ([2]; PO 10 mg/kg): 10.9 h
- bioavailability [2]: 98%

Compound: CP(C)(=O)c1cnc(Nc2ccc(C(F)(F)F)cc2)c(-c2cn3c(n2)CCC3)c1 [Example 22]
- half-life at 1 µM [1]: > 2.42 h
- AUC(0-t) ([2]; IV 2 mg/kg): 6.42 µM·h
- MRT ([2]; IV 2 mg/kg): 7.6 h
- clearance ([2]; IV 2 mg/kg): 11 mL/min/kg
- half-life ([2]; IV 2 mg/kg): 5.8 h
- AUC(0-t) ([2]; PO 10 mg/kg): 32.2 µM·h
- MRT ([2]; PO 10 mg/kg): 9.6 h
- half-life ([2]; PO 10 mg/kg): 7.3 h
- bioavailability [2]: 95%

Compound: Cc1ccc(Oc2ccc(C(F)(F)F)cc2)c2ccc(P(C)(C)=O)cc12 [Example 24]
- half-life at 1 µM [1]: 1.98 h
